Measured values published in patent publication US11020380B2, “Therapeutic compounds” (CELGENE QUANTICEL RESEARCH, INC., priority 2017, dated 2021).
Where two headings read alike, the source gives them in different places.

What was measured:
Assay type in all cases: binding
BRD4 = BRD4 (Homo sapiens (Human), UniProt O60885); assay: In vitro enzyme inhibition assay - BRD4 inhibition; details: BRD4 BD1
CBP [1] = molecular target: CBP (Homo sapiens, UniProt Q92793); assay: In vitro CBP inhibition (AlphaScreen, biotinylated H4-tetraacetyl peptide)
Method: (§1) The CBP-inhibitory activity of the compounds described herein was determined by calculating the IC50. More specifically, CBP inhibitor activity was assayed as follows: CBP was cloned and expressed in E. coli as His-tag protein and purified by Nickel affinity and gel-filtration chromatography. […] CBP binding and inhibition is assessed by monitoring the interaction of biotinylated H4-tetraacetyl peptide (AnaSpec, H4K5/8/12/16(Ac), biotin-labeled) with the target using the AlphaScreen technology (Perkin Elmer). In a 384-well ProxiPlate CBP (50 nM final) was combined with peptide (20 nM final) in 50 mM HEPES (pH 7.3), 10 mM NaCl, 0.25 mM TCEP, 0.1% (w/v) BSA, and 0.005% (w/v) Brij-35 either in the presence of DMSO (final 0.4% DMSO) or compound dilution series in DMSO. After 20 min incubation at room temp, Alpha-streptavidin donor beads and Nickel Chelate acceptor beads were added to a final concentration of 5 μg/mL.
(§2) The ability of the compounds disclosed herein to inhibit CBP activity was quantified and the respective IC50 value determined.

CBP [2] = assay: as above; details: selectivity CBP vs BRD4
Method: as §1, §2

CBP (Homo sapiens, UniProt Q92793), sequence (Q92793 2-2442 limits assumed): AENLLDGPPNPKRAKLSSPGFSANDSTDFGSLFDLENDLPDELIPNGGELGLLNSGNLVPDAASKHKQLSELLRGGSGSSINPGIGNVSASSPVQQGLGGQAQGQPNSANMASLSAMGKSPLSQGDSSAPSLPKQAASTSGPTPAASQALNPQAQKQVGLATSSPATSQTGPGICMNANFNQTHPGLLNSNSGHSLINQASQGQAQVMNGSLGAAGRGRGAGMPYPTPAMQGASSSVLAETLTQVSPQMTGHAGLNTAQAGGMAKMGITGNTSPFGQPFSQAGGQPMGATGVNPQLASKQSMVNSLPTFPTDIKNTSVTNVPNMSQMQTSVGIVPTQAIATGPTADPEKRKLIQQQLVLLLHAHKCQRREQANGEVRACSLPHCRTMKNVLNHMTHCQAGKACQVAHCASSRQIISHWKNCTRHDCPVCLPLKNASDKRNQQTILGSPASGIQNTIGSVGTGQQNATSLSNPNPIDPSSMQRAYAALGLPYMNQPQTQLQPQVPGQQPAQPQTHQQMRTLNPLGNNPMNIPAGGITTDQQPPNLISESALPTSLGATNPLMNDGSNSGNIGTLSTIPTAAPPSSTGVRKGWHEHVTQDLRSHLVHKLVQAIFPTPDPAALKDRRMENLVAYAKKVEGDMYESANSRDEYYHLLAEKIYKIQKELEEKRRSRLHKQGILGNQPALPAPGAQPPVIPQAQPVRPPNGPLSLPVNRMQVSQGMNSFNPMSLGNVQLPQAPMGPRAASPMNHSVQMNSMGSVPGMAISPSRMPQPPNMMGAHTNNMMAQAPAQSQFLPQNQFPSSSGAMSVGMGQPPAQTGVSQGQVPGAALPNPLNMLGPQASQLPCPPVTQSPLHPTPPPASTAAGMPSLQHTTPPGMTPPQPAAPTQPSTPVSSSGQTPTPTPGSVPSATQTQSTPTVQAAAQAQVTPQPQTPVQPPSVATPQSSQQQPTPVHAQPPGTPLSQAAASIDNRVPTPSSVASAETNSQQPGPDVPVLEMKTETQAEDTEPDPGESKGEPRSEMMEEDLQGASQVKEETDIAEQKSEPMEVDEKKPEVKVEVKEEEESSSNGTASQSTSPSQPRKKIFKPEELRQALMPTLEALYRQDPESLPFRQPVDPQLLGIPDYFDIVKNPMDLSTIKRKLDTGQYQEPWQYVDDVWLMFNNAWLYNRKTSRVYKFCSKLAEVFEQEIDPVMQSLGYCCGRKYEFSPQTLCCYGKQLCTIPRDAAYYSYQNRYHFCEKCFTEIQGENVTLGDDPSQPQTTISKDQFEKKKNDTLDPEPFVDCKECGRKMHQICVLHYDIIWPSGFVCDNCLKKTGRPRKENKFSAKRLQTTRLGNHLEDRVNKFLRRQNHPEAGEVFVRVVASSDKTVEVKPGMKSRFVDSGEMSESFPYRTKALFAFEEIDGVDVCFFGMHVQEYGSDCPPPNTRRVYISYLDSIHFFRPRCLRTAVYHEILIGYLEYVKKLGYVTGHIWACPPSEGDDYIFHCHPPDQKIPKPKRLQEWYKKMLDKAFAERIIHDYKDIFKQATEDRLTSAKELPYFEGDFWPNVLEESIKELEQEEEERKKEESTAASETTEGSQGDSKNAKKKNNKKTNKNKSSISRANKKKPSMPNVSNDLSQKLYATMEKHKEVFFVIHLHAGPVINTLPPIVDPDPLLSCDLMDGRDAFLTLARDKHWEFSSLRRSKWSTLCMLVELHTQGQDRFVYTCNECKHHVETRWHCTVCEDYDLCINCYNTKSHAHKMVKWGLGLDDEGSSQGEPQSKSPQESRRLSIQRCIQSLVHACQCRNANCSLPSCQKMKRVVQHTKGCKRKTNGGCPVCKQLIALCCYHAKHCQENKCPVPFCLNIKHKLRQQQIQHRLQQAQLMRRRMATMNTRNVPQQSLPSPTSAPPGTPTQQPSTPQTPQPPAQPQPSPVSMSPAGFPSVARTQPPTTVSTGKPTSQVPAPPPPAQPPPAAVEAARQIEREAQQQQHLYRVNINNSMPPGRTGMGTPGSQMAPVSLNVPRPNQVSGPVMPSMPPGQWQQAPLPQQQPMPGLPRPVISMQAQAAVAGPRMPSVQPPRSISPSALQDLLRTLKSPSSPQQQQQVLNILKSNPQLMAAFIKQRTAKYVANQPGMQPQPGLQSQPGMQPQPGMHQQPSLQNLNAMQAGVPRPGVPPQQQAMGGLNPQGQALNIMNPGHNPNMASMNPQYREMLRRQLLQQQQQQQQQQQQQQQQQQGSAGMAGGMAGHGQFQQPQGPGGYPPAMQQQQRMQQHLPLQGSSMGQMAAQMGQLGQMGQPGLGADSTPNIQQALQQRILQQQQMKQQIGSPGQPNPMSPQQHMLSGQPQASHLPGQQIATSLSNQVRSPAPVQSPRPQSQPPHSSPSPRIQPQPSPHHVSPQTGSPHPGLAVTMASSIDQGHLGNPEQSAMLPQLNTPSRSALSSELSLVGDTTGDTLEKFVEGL

IC50 for CBP compared with IC50 for BRD4 (CBP [2])	Compound	IC50 (BRD4)	IC50 (CBP [1]; read-out: CBP IC50)	IC50 (CBP [1]; read-out: CRREBBP IC50)
–	1-methyl-5-(1-(1-phenylethyl)-1H- pyrazol-4-yl)-4-(pyrrolidin-1-yl) pyridin-2(1H)-one [Example 41]	500 to 5000 nM	< 500 nM	< 500 nM
lower IC50 for CBP than for BRD4	Cn1cc(-c2cnn(Cc3ccccc3)c2)c(-n2cccc2)cc1=O [5-(1-benzyl-1H-pyrazol-4-yl)-1-methyl-4-(1H-pyrrol-1-yl)pyridin-2(1H)-one]	–	–	–
–	CN(C)CCCOc1ccc(-c2cc(=O)n(C)cc2-c2cnn(-c3cccc(Cl)c3C#N)c2)cn1 [Example 356, 2-chloro-6-(4-(6-(3-(dimethylamino)propoxy)-1′-methyl-6′-oxo-1′,6′-dihydro-[3,4′-bipyridin]-3′-yl)-1H-pyrazol-1-yl)benzonitrile]	–	< 500 nM	–
–	CNC(=O)[C@@H]1CCN(c2cc(=O)n(C)cc2-c2cnn(Cc3ccccc3)c2)C1 [Example 88]	–	< 500 nM	–
–	CCOc1cc(=O)n(C)cc1-c1cnn(C(C)c2ccccc2)c1 (stereo not shown) [Example 39, 4-ethoxy-1-methyl-5-(1-(1-phenylethyl)-1H-pyrazol-4-yl) pyridin-2(1H)-one]	–	< 500 nM	–
